Test results reported in ChEMBL document CHEMBL4406823 (Eur J Med Chem, 2019).
Active and inactive are the calls of the source. No cut-off for these calls is given here.

Assays:
[1] = test system: HeLa; assay: cells; conditions: Homo sapiens, 72 h
Description: Antiproliferative activity against human HeLa cells assessed as inhibition of cell proliferation incubated for 72 hrs by MTT assay

[2] = test system: HT-29; assay: cells; conditions: Homo sapiens, HT-29, 72 h
Description: Antiproliferative activity against human HT-29 cells assessed as inhibition of cell proliferation incubated for 72 hrs by MTT assay

[3] = test system: SEM cells; assay: Antiproliferative activity against human SEM cells assessed as inhibition of cell proliferation incubated for 72 hrs by MTT assay; assay type: functional, cell-based
[4] = biological target: Tubulin (Bos taurus, UniProt Q6B856+Q862L2+Q862F3); assay: Inhibition of bovine brain tubulin assembly using GTP as substrate incubated for 20 mins by spectrophotometric method
[5] = test system: MDA-MB-231; assay: Antiproliferative activity against human MDA-MB-231 cells assessed as inhibition of cell proliferation incubated for 72 hrs by MTT assay; assay type: functional, cell-based; conditions: MDA-MB-231, 72 h
[6] = test system: MCF7; assay: cells; conditions: Homo sapiens, MCF7, 72 h
Description: Antiproliferative activity against human MCF7 cells assessed as inhibition of cell proliferation incubated for 72 hrs by MTT assay

[7] = test system: HL-60; assay: Antiproliferative activity against human HL60 cells assessed as inhibition of cell proliferation incubated for 72 hrs by MTT assay; assay type: functional, cell-based; conditions: HL-60, 72 h
[8] = biological target: T1, Tubulin (Bos taurus) (UniProt Q6B856+Q862L2+Q862F3); assay: Displacement of [3H]-colchicine from bovine brain tubulin at 5 uM incubated for 1 hr by relative to control
[9] = biological target: T1, Tubulin (Bos taurus); assay: Displacement of [3H]-colchicine from bovine brain tubulin at 0.5 uM incubated for 1 hr by relative to control
[10] = test system: E0771; assay: Antitumour activity against mouse E0771 cells allografted in C57BL/6 mouse assessed as reduction in tumor mass at 30 mg/kg, ip administrated every other day by caliper method; assay type: functional, organism-based

## CCSc1ccc(-c2c[nH]nc2-c2cc(OC)c(OC)c(OC)c2)cc1
[1]
  IC50: 12.5 nM
[2]
  IC50: 5.4 nM
[3]
  IC50: 13.9 nM
[4]
  IC50: 480 nM
[5]
  IC50: 31.4 nM
[6]
  IC50: 492 nM
[7]
  IC50: 29.7 nM
[8]
  inhibition: 85%

## COc1ccc(-c2c[nH]nc2-c2cc(OC)c(OC)c(OC)c2)cc1F
[1]
  IC50: 7.3 nM
[2]
  IC50: 15.8 nM
[3]
  IC50: 2.7 nM
[4]
  IC50: 420 nM
[5]
  IC50: 327 nM
[6]
  IC50: 805 nM
[7]
  IC50: 5.1 nM
[9]
  inhibition: 55%
[8]
  inhibition: 93%

## COc1ccc(-c2n[nH]cc2-c2cc(OC)c(OC)c(OC)c2)cc1
[1]
  IC50: 1.9 nM
[2]
  IC50: 0.8 nM
[3]
  IC50: 0.4 nM
[4]
  IC50: 340 nM
[5]
  IC50: 0.9 nM
[6]
  IC50: 2.6 nM
[7]
  IC50: 2.1 nM
[9]
  inhibition: 79%
[8]
  inhibition: 93%

## COc1cc(-c2n[nH]cc2-c2ccc3ccccc3c2)cc(OC)c1OC
[1]
  IC50: 6.6 nM
[2]
  IC50: 8.1 nM
[3]
  IC50: 3.3 nM
[4]
  IC50: 410 nM
[5]
  IC50: 28.4 nM
[6]
  IC50: 21.4 nM
[7]
  IC50: 9.4 nM
[9]
  inhibition: 68%
[8]
  inhibition: 91%

## COc1cc(-c2n[nH]cc2-c2ccc(C)cc2)cc(OC)c1OC
[1]
  IC50: 11.1 nM
[2]
  IC50: 28.2 nM
[3]
  IC50: 2.6 nM
[4]
  IC50: 370 nM
[5]
  IC50: 10.6 nM
[6]
  IC50: 127 nM
[7]
  IC50: 11.9 nM
[8]
  inhibition: 88%

## COc1cc(-c2n[nH]cc2-c2ccc(C)c(C)c2)cc(OC)c1OC
[1]
  IC50: 35.9 nM
[2]
  IC50: 68.4 nM
[3]
  IC50: 28.5 nM
[4]
  IC50: 610 nM
[5]
  IC50: 2610 nM
[6]
  IC50: 769 nM
[7]
  IC50: 51.3 nM
[8]
  inhibition: 85%

## COc1ccc(-c2c[nH]nc2-c2cc(OC)c(OC)c(OC)c2)cc1Cl
[1]
  IC50: 1.4 nM
[2]
  IC50: 0.2 nM
[3]
  IC50: 2.4 nM
[4]
  IC50: 520 nM
[5]
  IC50: 21.5 nM
[6]
  IC50: 1390 nM
[7]
  IC50: 17 nM
[8]
  inhibition: 85%

## COc1ccc(-c2c[nH]nc2-c2cc(OC)c(OC)c(OC)c2)cc1
[1]
  IC50: 6 nM
[2]
  IC50: 10.5 nM
[3]
  IC50: 1 nM
[4]
  IC50: 370 nM
[5]
  IC50: 8.6 nM
[6]
  IC50: 16.6 nM
[7]
  IC50: 4.4 nM
[8]
  inhibition: 86%

## COc1ccc(/C=C\c2cc(OC)c(OC)c(OC)c2)cc1OP(=O)(O)O
[10]
  inhibition: Active

## COc1cc(-c2n[nH]cc2-c2cc(C)c(OC)c(C)c2)cc(OC)c1OC
[1]
  IC50: > 10000 nM
[2]
  IC50: > 10000 nM
[3]
  IC50: 3340 nM
[5]
  IC50: > 10000 nM
[6]
  IC50: > 10000 nM
[7]
  IC50: > 10000 nM

## COc1cc(-c2n[nH]cc2-c2ccc(C(F)(F)F)cc2)cc(OC)c1OC
[1]
  IC50: 227 nM
[2]
  IC50: 67.4 nM
[3]
  IC50: 187 nM
[5]
  IC50: 523 nM
[6]
  IC50: 4380 nM
[7]
  IC50: 179 nM
